PMC5945669, “Reversible glycosidic switch for secure delivery of molecular nanocargos” (Nature Communications, 2018)

Tests used:
[1] = in animals; no reference given; cited from earlier work
[2] = Octanol-to-water partitioning; details: for partitioning behavior in octanol-water two-phase system: 1-octanol / citric acid buffer pH 5 (Fig. 2f), in words; for Log P (partition coefficient): 24 h, pH 5
Protocol: Samples from the supernatant were analyzed by HPLC to determine water solubility. The partitioning of compounds between octanol and water was determined by adding 2.5 nmol of each substance to an equal volume (200 µL) mixture of octanol and 0.25 M citric acid, pH 5 and shaking for 24 h to permit equilibration between the two phases. The tubes were then centrifuged at 20,000 × g for 30 min at 20 °C and 20 μL samples from each phase were analyzed by HPLC. The partition coefficient is defined by the following equation, where “C” is the concentration of compound in each phase. A partition coefficient equal to 0 means that the compound equally distributes between each phase.

[3] = Water solubility (saturation, HPLC); assay type: physicochemical; details: 24 h
[4] = Regeneration of parental drug 9AC within tumors (tumor vs blood); assay type: in vivo, NOD/SCID mice; details: female, NOD/SCID, mouse, intravenous, printed in picture of Fig. 9b, read-out: 9AC per gram of tissue, Tumor vs Blood
Protocol: Twelve to 16 week old female NOD/SCID immunodeficient mice were inoculated with 10^7 MDA-MB468 human breast cancer cells. When tumors reached ~100 mm^3, the mice were intravenously injected with 14.5 µmol kg^−1 (10 mg kg^−1) of liposomal 9AC-G^W (based on the drug concentration). Blood was collected in Na-heparinized hematocrit tubes from the tail vein and mice were then killed to harvest the tumor tissue. Blood samples (100 µL) were centrifuged at 2500 × g for 3 min and the plasma was collected for analysis. Tumor tissue was homogenized in 3 mL RIPA buffer (25 mM Tris-HCl pH 7.5, 150 mM NaCl, 0.1% SDS, 0.5% Na-deoxycholate, 1% Triton X-100) on a IKA Ultra-Turrax® TP 18/10 homogenizer. The amount of 9AC was determined in blood and tumor samples by HPLC and normalized to amounts per gram of tissue, according to the relationship 1 mL of whole blood = 1.06 g of weight.

[5] = system: MDA-MB-468 human breast tumors; assay: In vivo anticancer activity, subcutaneous human breast cancer xenograft; set-up: species or system NOD/SCID mice; details: four weekly injections
Protocol: MDA-MB468 human breast cancer cells (10^7 cells in 100 µL PBS) were injected subcutaneously in twelve to sixteen-week old female NOD/SCID immunodeficient mice. When tumors reached sizes ranging from 75 to 100 mm^3, groups of seven mice were treated at weekly intervals for four times with intravenous injections of 9AC at 5.5 µmol kg^−1 (2 mg kg^−1), 9AC-G^W at 14.5 µmol kg^−1 (10 mg kg^−1), liposomal 9AC-G^W at 14.5 µmol kg^−1 (10 mg kg^−1), or doxorubicin liposomes (Doxisome, 1.8 µmol kg^−1 equivalent to 1 mg kg^−1 and 5.5 µmol kg^−1 equivalent to 3 mg kg^−1). Tumor volumes, body weights, and survival were monitored for more than 2 months after treatments started. […] The tumor volume was calculated according to the following formula:2 TumorVolume=Length×Depth×Height/2

[6] = parental hydrophobic drugs; cited from earlier work
[7] = PBS pH 7.4, after 2 hr; no reference given; cited from earlier work
[8] = set-up: method as in earlier work; details: rats 50, 250, 500 mg/kg i.p. daily; dogs 50 mg/kg i.v.; ref 6 of peer review file; cited from earlier work
[9] = Pharmacokinetics in plasma after i.v. injection; set-up: species or system NOD/SCID female mice; details: female, NOD/SCID, mouse, in vivo, iv, 35 umol/kg
Protocol: 9AC-G^W was dissolved at 10.9 µmol mL^−1 (7.5 mg mL^−1) in 25 mM phosphate buffer pH 6.5 just before use. 9AC-G^W liposomes were concentrated by successive centrifugations at 5000, 10,000, and 20,000 × g for 30 min at 4 °C. After each centrifugation, the pellet was collected and resuspended in a smaller volume of buffer. The concentration of liposomal 9AC-G^W achieved through this method before injection was 5.1 µmol mL^−1 (3.5 mg mL^−1) based on 9AC-G^W. Each preparation (free 9AC-G^W and liposomal 9AC-G^W) was injected intravenously in the tail vein of 12–16 week old NOD/SCID female mice at 35 µmol kg^−1 (25 mg kg^−1) using three mice per group. Blood samples were collected at 5 min, 30 min, 60 min, 2 h, and 3 h for free 9AC-G^W, in addition to 6, 12, 26, 48, 148 h for 9AC-G^W liposomes with Na-heparinized hematocrit tubes from the tail vein. The plasma was separated from the red blood cells by centrifugation at 2500 × g for 3 min. […] The final results are expressed as 9AC-G^W plasma concentration in µmol L^−1 (µM). Biological half-lives were determined by an exponential two phase decay curve fit on GraphPad prism (GraphPad software, Inc.).

[10] = Stability and conversion of the lipid-soluble switch in liposomal external and internal buffers; assay type: physicochemical; details: 75 °C
Protocol: Error bars, SD, n = 3. c Kinetics of the conversion of 9AC-G^W to lipid-soluble 9AC-G^L, d BQC-G^W to BQC-G^L and e 4MU-G^W to 4MU-G^L in acidic methanol at 62 °C. The HPLC chromatograms show samples at 0, 15, 30, and 60 min. RFU relative fluorescent units. f Partition coefficients (Log scale) between 50 mM citric acid buffer pH 5 and 1-octanol of the parental compounds compared to their respective -G^W and -G^L forms. Error bars: SD, n = 5. g Stability of 9AC-G^L in liposomal external buffer (50 mM citric acid, 250 mM sodium sulfate, pH 5) at 75 °C. Error bars: SD, n = 3. h Conversion of 9AC-G^L to 9AC-G^W in liposomal internal buffer (50 mM HEPES, 250 mM calcium acetate, pH 8.5) at 75 °C. Error bars: SD, n = 3.
Water-soluble 9AC-G^W was obtained by incubating 50 µg 9AC-G^L in 500 µL of liposomal internal buffer at pH 8.5. After 1 h at 65 °C the reaction was analyzed by HPLC to assess the reformation of 9AC-G^W. A 20 µL sample of 9AC-G^W was then transferred to 1 mL of reaction buffer (100 mM sodium acetate, 100 ng mL^−1 bovine serum albumin, pH 4.5) containing 1 µg of purified recombinant human beta-glucuronidase[56] for 1 h at 37 °C to cleave the cue-responsive trigger and generate 9AC. Drug regeneration was also examined in a biological system where 10^5 cells (MDA-MB468, HCC36, and HCC36 anti-PEG) were seeded per well in a 96 well-plate in triplicate and incubated overnight. […]

**Q.** Which LD50 dose [1] does the source give for `OCc1ccccc1` [Benzyl alcohol, benzyl alcohol] here?
**A.** greater than 1 g per kg

**Q.** For `CCC1(O)C(=O)OCc2c1cc1n(c2=O)Cc2c-1nc1ccc(OCc3ccc(OC4OC(C(=O)O)C(O)C(O)C4O)c([N+](=O)[O-])c3)c3c1c2CCC3` [BQC-G^W, 5,6-dihydro-4H-benzo[de]quinoline-camptothecin-β-D-glucuronide], which “partitioning behavior in octanol-water two-phase system” value (“partitioning behavior” below) [2] is on record?
**A.** partitioned in the aqueous phase

**Q.** And the “partitioning behavior” value ([2]; listed as BQC-G^L)?
**A.** slightly lipophilic behavior

**Q.** What about the “Log P (partition coefficient)” value [2] of the same compound?
**A.** ~ 1.3

**Q.** What about the “water solubility, fold greater than the parental hydrophobic drug” value [3] of the same compound?
**A.** 3700 fold

**Q.** For `CC[C@@]1(O)C(=O)OCc2c1cc1n(c2=O)Cc2cc3c(N)cccc3nc2-1` [9AC, 9-aminocamptothecin], which Kp at 24 h ([4]; 24 h post-injection) is on record?
**A.** > 30

**Q.** And the Kp at 72 h ([4]; 72 h post-injection)?
**A.** > 12

**Q.** And the “effect on tumor growth compared with TBS” value ([5]; 5.5 µmol kg^−1 i.v.)?
**A.** minimal effect on tumor growth

**Q.** And the water solubility [6]?
**A.** < 50 µg/mL

**Q.** With `CC[C@@]1(O)C(=O)OCc2c1cc1n(c2=O)Cc2cc3ccccc3nc2-1` [CPT] as the compound, how does the activity remaining [7] read?
**A.** 10%

**Q.** For `O=C[C@H](O)[C@@H](O)[C@H](O)[C@H](O)C(=O)O` [D-glucuronic acid], which “functional or morphological changes after one-month treatment” value [8] is on record?
**A.** induced neither f unctional nor

**Q.** For `Cc1cc(=O)oc2cc(O[C@@H]3O[C@H](C(=O)O)[C@@H](O)[C@H](O)[C@H]3O)ccc12` [4MU-G^W, 4-methylumbelliferyl-β-D-glucuronide, reference compound], which “partitioning behavior” value [2] is on record?
**A.** partitioned in the aqueous phase

**Q.** And the “partitioning behavior” value ([2]; listed as 4MU-G^L)?
**A.** slightly lipophilic behavior

**Q.** What does the source list for `CCC1(O)C(=O)OCc2c1cc1n(c2=O)Cc2cc3c(NC(=O)OCc4ccc(OC5OC(C(=O)O)C(O)C(O)C5O)cc4)cccc3nc2-1` [9AC-G^W, 9-aminocamptothecin-β-D-glucuronide]?
**A.** partitioning behavior in octanol-water two-phase system [2]: partitioned in the aqueous phase; partitioning behavior in octanol-water two-phase system ([2]; listed as 9AC-G^L): slightly lipophilic behavior; Log P (partition coefficient) [2]: ~ 1.1; half-life ([9]; initial half-life): 9.3 min; half-life ([9]; terminal half-life): 38.6 min; water solubility, fold greater than the parental hydrophobic drug [3]: 680 fold; stability in liposomal external buffer ([10]; pH 5 (50 mM citric acid, 250 mM sodium sulfate)): stable; conversion in liposomal internal buffer ([10]; pH 8.5 (50 mM HEPES, 250 mM calcium acetate)): rapidly converted to the highly water-soluble 9AC-G^W; effect on tumor growth compared with TBS ([5]; 14.5 µmol kg^−1 i.v.): minimal effect on tumor growth

**Q.** With `CCC1(O)C(=O)OCc2c1cc1n(c2=O)Cc2c-1nc1ccc(O)c3c1c2CCC3` (centres unmarked) [BQC, 5,6-dihydro-4H-benzo[de]quinoline-camptothecin, reference compound] as the compound, how does the “Water solubility, fold difference between Parental and -G^W Switch” value [3] read?
**A.** > 3700 ×
